Source: ChEMBL document CHEMBL4619751, “Synthesis of novel spirobibenzopyrans as potent anticancer leads inducing apoptosis in HeLa cells” (Bioorg Med Chem Lett, 2020)
The source made the active and inactive calls. The calls are words filed in the database; no cut-off is given here.

How the values were obtained:
HeLa [1] = assay: Cytotoxicity against human HeLa cells assessed as cell proliferation at 10 uM by MTT assay relative to control; assay type: functional; details: read-out: Activity
HeLa [2] = assay: Cytotoxicity against human HeLa cells assessed as growth inhibition by MTT assay; assay type: functional, cell-based
HeLa [3] = assay: Cell cycle arrest in human HeLa cells assessed as accumulation at sub G0/G1 phase at 50 uM measured after 48 hrs by FACS analysis; assay type: functional, cell-based
HeLa [4] = assay: Induction of apoptosis in human HeLa cells assessed as nuclear fragmentation by acridine oranga/ethidium bromide staining based assay; assay type: functional, cell-based
HeLa [5] = assay: Cell cycle arrest in human HeLa cells assessed as accumulation at S phase at 10 uM measured after 48 hrs by FACS analysis; assay type: functional, cell-based
HeLa [6] = assay: Cell cycle arrest in human HeLa cells assessed as accumulation at sub G0/G1 phase at 10 uM measured after 48 hrs by FACS analysis; assay type: functional, cell-based
HeLa [7] = assay: Cell cycle arrest in human HeLa cells assessed as accumulation at S phase at 50 uM measured after 48 hrs by FACS analysis; assay type: functional, cell-based
HeLa [8] = assay: Cell cycle arrest in human HeLa cells assessed as accumulation at middle G0/G1 phase at 10 uM measured after 48 hrs by FACS analysis; assay type: functional, cell-based
HeLa [9] = assay: Cell cycle arrest in human HeLa cells assessed as accumulation at early G0/G1 phase at 10 uM measured after 48 hrs by FACS analysis; assay type: functional, cell-based
HeLa [10] = assay: Induction of DNA damage in human HeLa cells assessed as inhibition of DNA replication; assay type: functional, cell-based
HeLa [11] = assay: Induction of DNA damage in human HeLa cells assessed as tail DNA formation at IC50 by alkaline Comet assay; assay type: functional
HeLa [12] = assay: Induction of apoptosis in human HeLa cells assessed as chromatin condensation by acridine oranga/ethidium bromide staining based assay; assay type: functional, cell-based

Row | Structure (SMILES) | growth at 10 µM (HeLa [1]) | IC50 (HeLa [2]) | further results
1 | Clc1cc(Cl)c2c(c1)C=C1CCCCC3=Cc4cc(Cl)cc(Cl)c4OC13O2 | 102% |  | 
2 | COc1ccc2c(c1)C=C1CCCC3=Cc4cc(OC)ccc4OC13O2 | 46.6% | 10.7 µM | Activity (HeLa [3]): inactive; Activity (HeLa [4]): Active; Activity (HeLa [5]): Active; Activity (HeLa [6]): Active; Activity (HeLa [7]): inactive; Activity (HeLa [8]): Active
3 | Clc1ccc2c(c1)C=C1CCCCC3=Cc4cc(Cl)ccc4OC13O2 | 90.1% |  | 
4 | C1=C2CCCCC3=Cc4ccccc4OC23Oc2ccccc21 | 80.2% |  | 
5 | COc1ccc2c(c1)C=C1CCCCC3=Cc4cc(OC)ccc4OC13O2 | 59.3% | 12.2 µM | Activity (HeLa [9]): Active; Activity (HeLa [4]): Active; Activity (HeLa [6]): Active
6 | Brc1ccc2c(c1)C=C1CCCCC3=Cc4cc(Br)ccc4OC13O2 | 111% |  | 
7 | COc1ccc2c(c1)OC13Oc4cc(OC)ccc4C=C1CCCC3=C2 | 62.1% | 13.6 µM | Activity (HeLa [10]): Active; Activity (HeLa [11]): 3.32 um; Activity (HeLa [5]): Active; Activity (HeLa [6]): Active; Activity (HeLa [12]): Active
8 | Clc1ccc2c(c1)C=C1CSCC3=Cc4cc(Cl)ccc4OC13O2 | 105% |  | 
9 | C1=C2CCCC3=Cc4ccccc4OC23Oc2ccccc21 | 77% |  | 
10 | O=c1[nH]cc(F)c(=O)[nH]1 [FLUOROURACIL] | 73.7% | 15 µM | Activity (HeLa [11]): 6.91 um
11 | Clc1ccc2c(c1)C=C1CCCC3=Cc4cc(Cl)ccc4OC13O2 | 105% |  | 
12 | COc1ccc2c(c1)OC13Oc4cc(OC)ccc4C=C1CCCCC3=C2 | 108% |  | 
